Tested on: seeds of leguminous crops
Assay: Liquid composition coated on seeds of leguminous crops, dried and sowed in soil
Format: in vivo
Details: monoethanolamine as component of the composition
Source text: The liquid composition as disclosed herein was coated on seeds of leguminous crops and the seeds were dried and sowed in soil. The germination rate was increased as well as the number of nodules, the mass of roots and the amount of dry matter in the shoots.

NCCO [Monoethanolamine]
Effect on the growth of nodules: no detrimental effect
